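48-hour exposure; five concentrations; linearly interpolated endpoints. TGI is the concentration that stops growth completely.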

Some test systems named below: SR leukemia; MDA-MB-231 breast; CAKI-1 renal; PC-3 prostate; MOLT-4 leukemia; SK-MEL-28 melanoma; HOP-92 NSCLC; K-562 leukemia; TK-10 renal; RPMI-8226 leukemia; KM12 colon; HCT-116 colon; CCRF-CEM leukemia; HL-60(TB) leukemia; EKVX NSCLC; UACC-257 melanoma; A498 renal; HCT-15 colon; SW-620 colon.
Common to all, as to assay: NCI anticancer screen, dose series, 48 h

In the case of `O=C1CSC2(CC(/C=C/c3ccccc3O)=NN2c2cccc(S(=O)(=O)O)c2)N1c1nc2ccccc2s1` (stereo not drawn), the TGI was 49.5 µM in the assay with SR leukemia; more than 100 µM in the assay on MDA-MB-231 breast; more than 100 µM with CAKI-1 renal; more than 100 µM in the assay with PC-3 prostate; 82.9 µM in the assay with MOLT-4 leukemia; more than 100 µM with SK-MEL-28 melanoma. The TGI in the assay on HOP-92 NSCLC was more than 100 µM; in the assay on K-562 leukemia, more than 100 µM; with TK-10 renal, 58.5 µM; in the assay on RPMI-8226 leukemia it was 42.1 µM; in the assay on KM12 colon, more than 100 µM; in the assay with HCT-116 colon it was more than 100 µM. In addition, the TGI was 51.7 µM in the assay with CCRF-CEM leukemia; 49 µM with HL-60(TB) leukemia; more than 100 µM in the assay with EKVX NSCLC; more than 100 µM in the assay on UACC-257 melanoma; more than 100 µM in the assay on A498 renal; more than 100 µM in the assay on HCT-15 colon. This compound displayed a TGI with SW-620 colon of more than 100 µM.
For `NC(=O)C(Nc1c(Cl)cccc1Cl)c1cc2cc(Br)ccc2nc1Cl` (stereo not drawn), the TGI in the assay on SR leukemia is 56.5 µM; in the assay with MDA-MB-231 breast it was more than 100 µM; in the assay with CAKI-1 renal, more than 100 µM; in the assay on PC-3 prostate it was more than 100 µM; in the assay on MOLT-4 leukemia, 57.6 µM; with SK-MEL-28 melanoma, more than 100 µM. Further, the TGI in the assay on HOP-92 NSCLC was more than 100 µM; in the assay with K-562 leukemia, more than 100 µM; in the assay on TK-10 renal it was 96.3 µM; in the assay on RPMI-8226 leukemia it was more than 100 µM; in the assay with KM12 colon, more than 100 µM; with HCT-116 colon it was more than 100 µM. Moreover, the TGI in the assay on CCRF-CEM leukemia, in the assay with HL-60(TB) leukemia, in the assay with EKVX NSCLC, in the assay on UACC-257 melanoma, with A498 renal and in the assay on HCT-15 colon was more than 100 µM each time. Also, the TGI with SW-620 colon is more than 100 µM.
In the case of `Fc1cc(C2=C[C@H](c3ccc(Cl)cc3)NC(=S)N2)c(Cl)cc1Cl`, the TGI in the assay on SR leukemia was more than 100 µM; in the assay with MDA-MB-231 breast it was 88.7 µM; in the assay with CAKI-1 renal, more than 100 µM; with PC-3 prostate, more than 100 µM; in the assay on MOLT-4 leukemia it was more than 100 µM; in the assay with SK-MEL-28 melanoma it was more than 100 µM. For the same compound, the TGI with HOP-92 NSCLC is more than 100 µM; with K-562 leukemia, more than 100 µM; in the assay with TK-10 renal, more than 100 µM; in the assay with RPMI-8226 leukemia it was 56.2 µM; with KM12 colon it was more than 100 µM; in the assay on HCT-116 colon, more than 100 µM. Moreover, the TGI with CCRF-CEM leukemia was more than 100 µM; in the assay with HL-60(TB) leukemia, 65.7 µM; with EKVX NSCLC, more than 100 µM; in the assay on UACC-257 melanoma it was more than 100 µM; with A498 renal, 89.6 µM; with HCT-15 colon it was more than 100 µM. Also, the TGI in the assay with SW-620 colon was more than 100 µM.
For the compound `CCOC(=O)/C(N=Nc1ccc(-n2c(C)nc3ccccc3c2=O)cc1)=C(/C)O`, the TGI with SR leukemia was more than 100 µM; in the assay with MDA-MB-231 breast, more than 100 µM; in the assay on CAKI-1 renal it was more than 100 µM; with PC-3 prostate, more than 100 µM; in the assay on MOLT-4 leukemia, 64.1 µM; in the assay on SK-MEL-28 melanoma, 71.6 µM. The TGI in the assay on HOP-92 NSCLC is more than 100 µM; in the assay with K-562 leukemia, more than 100 µM; in the assay on TK-10 renal it was more than 100 µM; in the assay on RPMI-8226 leukemia it was more than 100 µM; with KM12 colon, 37.4 µM; with HCT-116 colon it was more than 100 µM. For the same compound, the TGI in the assay on CCRF-CEM leukemia is more than 100 µM; in the assay on HL-60(TB) leukemia it was 41.2 µM; in the assay on EKVX NSCLC it was more than 100 µM; in the assay with UACC-257 melanoma it was more than 100 µM; in the assay on A498 renal, more than 100 µM; with HCT-15 colon it was more than 100 µM. Further, the TGI in the assay on SW-620 colon was more than 100 µM.
Consider `COc1ccc(/C=C2/C(C)=NN(c3cccc(Cl)c3)/C2=N/c2nc3ccccc3s2)cc1`, for which the TGI was determined as 62.6 µM in the assay with SR leukemia; 67.5 µM in the assay on MDA-MB-231 breast; 86.6 µM in the assay with CAKI-1 renal; 38 µM in the assay on PC-3 prostate; 63.8 µM in the assay with MOLT-4 leukemia; 46.9 µM in the assay on SK-MEL-28 melanoma. Also, the TGI with HOP-92 NSCLC is 47.7 µM; in the assay on K-562 leukemia it was more than 100 µM; in the assay on TK-10 renal, 68.8 µM; in the assay on RPMI-8226 leukemia, 66.6 µM; in the assay with KM12 colon, more than 100 µM; in the assay on HCT-116 colon it was 33.9 µM. The TGI came out at 92.7 µM in the assay on CCRF-CEM leukemia; 51.4 µM in the assay on HL-60(TB) leukemia; 83.1 µM in the assay with EKVX NSCLC; 55.7 µM with UACC-257 melanoma; 62.4 µM in the assay on A498 renal; 36.1 µM in the assay on HCT-15 colon. This compound also came in with a TGI in the assay on SW-620 colon of 52 µM.
Regarding `O=c1n(/N=C/c2ccccc2)c(=O)n2n1C1C=CC2CC1`, the TGI with SR leukemia, in the assay on MDA-MB-231 breast, in the assay on CAKI-1 renal, in the assay on PC-3 prostate, with MOLT-4 leukemia and in the assay with SK-MEL-28 melanoma was more than 100 µM each time. Moreover, the TGI with HOP-92 NSCLC, in the assay on K-562 leukemia, in the assay on TK-10 renal, in the assay on RPMI-8226 leukemia, with KM12 colon and with HCT-116 colon was more than 100 µM in each case. In addition, the TGI in the assay with CCRF-CEM leukemia, in the assay with HL-60(TB) leukemia, in the assay with EKVX NSCLC, in the assay on UACC-257 melanoma, in the assay with A498 renal and with HCT-15 colon was more than 100 µM throughout. This compound yielded a TGI in the assay on SW-620 colon of more than 100 µM.
Turning to `COc1cc(OCc2ccc3nc(-c4ccccc4)c(N)nc3c2)cc(OC)c1OC`, the TGI in the assay with SR leukemia came to 43.8 µM; with MDA-MB-231 breast, 68.9 µM; with CAKI-1 renal it was 71.4 µM; in the assay with PC-3 prostate, 45.4 µM; in the assay with MOLT-4 leukemia it was 28.8 µM; in the assay on SK-MEL-28 melanoma, 49 µM. Moreover, the TGI was 50 µM with HOP-92 NSCLC; more than 100 µM in the assay with K-562 leukemia; 50.3 µM in the assay on TK-10 renal; 31.3 µM in the assay with RPMI-8226 leukemia; 36.7 µM in the assay on KM12 colon; 21.1 µM in the assay on HCT-116 colon. For the same compound, the TGI in the assay on CCRF-CEM leukemia came to 61.9 µM; in the assay with HL-60(TB) leukemia, 32.4 µM; in the assay with EKVX NSCLC it was 50.2 µM; in the assay on UACC-257 melanoma, 49.7 µM; in the assay with A498 renal, 73.8 µM; in the assay on HCT-15 colon it was 39.7 µM. Also, in the assay with SW-620 colon, the TGI was more than 100 µM.

Values taken from PubChem BioAssay (NCI).
